In US20100204324A1, “Optically Active N-(Alpha-Mercaptopropionyl)Glycine” (priority 2007, published 2010):

How the values were obtained:
Assay type in all cases: in vivo
[1] = test system: mice with liver injury induced by acetamidophenol; assay: Liver injury in mice induced by acetamidophenol, drugs by intravenous injection: serum biochemical indicators and liver indexes; details: for Liver albumin / Liver total protein / GSH: 10% liver homogenate; for Liver albumin / Liver total protein / GSH / MDA / Liver coefficient / mice dead after modeling / Serum total protein: mice, drug 800 mg/kg iv; for GSH / MDA: liver; for Liver coefficient / Serum total protein: acetamidophenol 400 mg/kg ip, 24 hours after modeling; for mice dead after modeling: acetamidophenol model
Experimental: The animals were randomly divided into the following 5 groups of 10 animals according to weight: solvent control group, model group (acetamidophenol, 400 mg/kg, ml/kg, intraperitoneal injection), tiopronin group (MPG), R-(−)-N-(α-mercaptopropionyl)glycine group, and S-(+)-N-(α-mercaptopropionyl)glycine group. After fasting for 12 h, except the solvent control group and model group were given saline by intravenous injection, the other test groups were intravenously injected drugs, and then intraperitoneally injected 400/mg/kg of acetamidophenol immediately, to induce acute liver cell injury. The animals were fed with food at 6 hours after modeling, and then fasted for 16 hours; and at 24 hours after modeling, blood were sampled by eye ball removal, centrifuged, and collected for serum. ALT, and AST were determined following the method of the kit. 10% of liver homogenate was prepared, to measure GSH. The liver and spleen were taken at the same time, weighted, and calculated for organcoefficient.

[2] = test system: rats with liver injury induced by CCl4; assay: Protection against liver injury in rats induced by carbon tetrachloride, drugs given intragastrically; details: CCl4 model, drug 450 mg/kg ig; for A/G: serum albumin/globulin; for Albumin / Globulin / Total protein: serum
Experimental: The animals were randomly divided into the following 5 groups of 10 animals according to weight: solvent control group, model group (50% CCl4, 2 ml/kg, intraperitoneal injection), tiopronin group (MPG), R-(−)-N-(α-mercaptopropionyl)glycine group, and S-(+)-N-(α-mercaptopropionyl)glycine group. Except the solvent control group was given olive oil by intraperitoneal injection, the other test groups were intragastrically administrated drugs for 4 days, once daily, intraperitoneally injected CCl4 once on the fifth day to induce acute liver cell injury, treated with drugs 30 min before modeling (except for the model control group), and then administrated drugs once 2 hours after modeling. Then, the animals were fasted for 16 h, blood was sampled from retrobulbar venous plexus 24 hours after injecting CCl4, centrifuged, and collected for serum, and ALT, AST, albumin were determined following the method of the kit. The left lobe of liver was taken to prepare 10% of liver homogenate and measure GSH and MDA contents.

[3] = Pharmacokinetic test in the body of a test animal, plasma drug concentration by HPLC-MS (interconversion of enantiomers); details: each time point after administration, GITC derivatization
Text: It is found from pharmacokinetic experiment that, conversion of R-(−)-N-(α-mercaptopropionyl)glycine and S-(+)-N-(α-mercaptopropionyl)glycine to each other have not occurred in body. The specific experiment is a pharmacokinetic test in the body of a test animal, including determining the plasma drug concentration with high-performance liquid chromatography-mass spectrometry (HPLC-MS).
The process for treat a plasma sample to formulate an injected solution includes plasma acidification, extraction, and then derivatization, and is as follows: […]
ionization mode: electrospray ionization; selective ion detection; curved desolvation line (CDL); temperature: 200° C.-300° C., with 250° C. being preferred; heating block temperature: 150° C.-250° C., with 200° C. being preferred; CDL voltage: 20V-30V, with 25V being preferred; detection voltage: +1.2 kV-+1.8 kV, with +1.50 kV being preferred; flow rate of atomizing gas: 1.2 L/min-1.8 L/min, with 1.5 L/min being preferred; flow rate of drying gas: 1.5 L/min-2.5 L/min, with 2.0 L/min being preferred; detected ion: derivative of test drug [M+Na]+(m/z): 575.20; internal standard: derivative of N-isobutanoyl-D-cysteine (NIDC) [M+Na]+(m/z): 603.05; […]

[4] = listed as S—H—N-(α-mercaptopropionyl)glycine

Structure (SMILES) | Liver albumin [1] [mg/mL] | Liver total protein [1] [mg/mL] | GSH ([1]; listed as tiopronin) | MDA [1] [nmol/g wet weight] | MDA ([1]; listed as tiopronin) | Liver coefficient [1] [mg/g] | mice dead after modeling [1] | A/G [2] | A/G ([2]; listed as tiopronin) | Albumin [2] [mg/mL] | Globulin [2] [mg/mL] | Total protein [2] [mg/mL] | Albumin ([2]; listed as tiopronin) | Globulin ([2]; listed as tiopronin) | Total protein ([2]; listed as tiopronin) | Serum total protein [1] [mg/mL] | protection against liver injury in mice induced by acetamidophenol ([1]; overall comparison with tiopronin group, 800 mg/kg iv) | presence of the other enantiomer in plasma spectrogram after individual administration (conversion in body) [3] | GSH [1, 4] | MDA [1, 4]
CC(S)C(=O)NCC(=O)O (stereo not drawn) [Tiopronin, N-(α-mercaptopropionyl)glycine] | 9.6 ± 1.1 | 15.7 ± 1.4 | no such effects | 362.4 ± 98.6 | no such effects | 5.804 ± 0.598 | 4 | 0.825 ± 0.101 | no obvious effect | 26.8 ± 1.98 | 32.9 ± 4.79 | 59.8 ± 6.26 | no obvious effect | no obvious effect | no obvious effect |  |  |  |  | 
C[C@@H](S)C(=O)NCC(=O)O [R-(−)-N-(α-mercaptopropionyl)glycine] | 9.2 ± 1.3 | 16.5 ± 1.7 |  |  |  | 5.816 ± 0.613 | no death |  |  |  |  |  |  |  |  | 43.8 ± 7.4 | superior to that in tiopronin group | not obviously detected |  | 
CC(S)C(=O)NCC(=O)O (stereo not drawn) [S-(+)-N-(α-mercaptopropionyl)glycine] | 9.1 ± 2.0 | 16.2 ± 2.9 |  | 440.0 ± 134.6 |  | 6.201 ± 0.567 |  |  |  | 27.5 ± 1.44 | 37.2 ± 5.06 | 64.7 ± 6.40 |  |  |  | 43.7 ± 5.7 |  | not obviously detected | no such effects | no such effects
